Data reported in patent US20230390326A1, “COMPOSITION COMPRISING CATIONIC SUBSTANCE, AND USE FOR SAME” (SUNGKWANG MEDICAL FOUNDATION, priority 2020, published 2023).
Peptide text beside a SMILES is read from it. * marks the point of attachment. Cbz = O=C(OCc1ccccc1)*

What was measured:
perforin protein = assay: Western blot of perforin protein in cultured NK cells; assay type: cell-based; settings: NK cells treated with MG132 to prevent intracellular protein degradation
Experimental: Protein extracts from NK cells were separated using 10% SDS-PAGE, and transferred to a polyvinylidene difluoride amersham Biosciences membrane for 90 minutes at the voltage of 120 V. The membrane was blocked in 3% bovine serum albumin (BSA)-containing tris-buffered saline-Tween [TBST; 0.2 M NaCl, 0.1% Tween-20, and 10 mM Tris (pH 7.4)] for 1 hour. The blocked membrane was incubated with a rabbit polyclonal anti-Perforin antibody (1:1000; ab180773, abcam) or a rabbit monoclonal anti-GAPDH antibody (1:1000; […], Cell signaling). After incubation, the membrane was incubated with anti-rabbit polyclonal IgG (1:5000; #7074, Cell Signaling Technology) for 1 hour at room temperature. After each step, the membrane was washed several times using TBST and bound antibodies were detected using an enhanced chemiluminescence detection system (Thermo Fisher Scientific Biosciences) according to manufacturer instructions In order to determine whether […] increases the amount of intracellular perforin, the NK cells of Example 1 were treated with 5 μg/ml of polyethylenimine, and cultured over time (0 hour, 3 hour, 6 hour, 12 hours, 24 hours, or 48 hours), and then Western blotting was performed on the cultured NK cells to identify the amount of granzyme B and perforin protein. […]

[1] = tested on: triple negative breast cancer cell line MDA_MB231; assay: In vitro assay of inducing activity of natural killer cells (CFSE-7AAD assay, apoptosis of target cells); assay type: cell-based; settings: NK cells cultured 48 hours with the substance, then mixed with MDA_MB231 at E:T 10:1 for 4 hours; target only 1.32, NK cells only 21.36
Experimental: Green fluorescence-labeled MDA MB 231 cells and NK cells were put into a 1.5 ml eppendorf tube in respective ratios, mixed, and reacted in a 37° C., CO2 5% incubator for 4 hours. After the reaction was over, the cells were stained with 7AAD (Invitrogen A1310) for 20 minutes and fixed. Through flow cytometry, the mixed cells were divided into two cell populations according to the presence or absence of green fluorescence, and the percentage of dead cells was measured and compared by group to analyze the activity.
In order to confirm the ability of […] to induce the activity of NK cells according to molecular weight and type, the NK cells of Example 1 were cultured for 48 hours after mixing with various molecular weights and types of polyethylenimine or with a control group.
Next, the cultured NK cells were washed, and re-suspended in a fresh culture medium. Thereafter, the NK cells and triple negative breast cancer cell line MDA_MB231 were mixed in an effector (E):target (T) ratio of 10:1 and cultured for 4 hours. Finally, the degree of apoptosis of the target cells in the cultured cells was quantitatively analyzed using the CFSE-7AAD assay.

Compound: CC(C)C[C@@H](C=O)NC(=O)[C@H](CC(C)C)NC(=O)[C@H](CC(C)C)NC(=O)OCc1ccccc1 [MG132] (Cbz-Leu-Leu-Leu-aldehyde)
- amount of perforin protein (perforin protein): increased

Compound: Protamine
- degree of apoptosis of target cells [1]: 25.31
